Measurements: ChEMBL document CHEMBL1201862, “PubChem BioAssay data set” (2004)
The source made the active and inactive calls.

Legend:
[1] = target: T1, Nucleotide-binding oligomerization domain-containing protein 2 (Homo sapiens, UniProt Q9HC29); experiment: NOD2 signaling inhibitors, cell-based, luminescence, uHTS, HEK293 (AID 1566); assay type: functional
[2] = target: T1, Nucleotide-binding oligomerization domain-containing protein 2; experiment: NOD2 inhibitors, SAR follow-up, set 2 (AID 2475); assay type: functional
HEK293 [3] = experiment: SAR analysis of compounds that are cytotoxic to HEK293 - Set 2. [Related pubchem assays (depositor defined):AID1575, AID1578, AID1849, AID2001, AID2333, AID2334, AID2335, AID2337, AID2800]; assay type: functional, cell-based; details: Homo sapiens
HEK293 [4] = experiment: NOD2 signaling inhibitors in MDP-stimulated cells, cell-based, uHTS, luminescence (AID 2001); assay type: functional; details: Homo sapiens
HEK293 [5] = experiment: cells; assay type: functional, cell-based; details: Homo sapiens
[6] = target: T1, Nucleotide-binding oligomerization domain-containing protein 2; experiment: PubChem AID 2334; assay type: functional
HEK293 [7] = experiment: cells; details: Homo sapiens
Tumor necrosis factor [8] = target: T2, Tumor necrosis factor (Homo sapiens, UniProt P01375); experiment: TNFa-triggered NF-kB activation inhibitors, SAR follow-up, cell-based, revised (AID 2337); assay type: functional
HEK293 [9] = experiment: cells; assay type: functional, cell-based; details: Homo sapiens; remark: listed apart in the source
[10] = target: T3, Nucleotide-binding oligomerization domain-containing protein 1 (Homo sapiens, UniProt Q9Y239); experiment: SAR analysis of compounds that inhibit NOD1 - Set 2. [Related pubchem assays (depositor defined):AID1566, AID1575, AID1578, AID1849, AID1852, AID2333, AID2335, AID2798]; assay type: functional
T3 sequence (Q9Y239 whole entry): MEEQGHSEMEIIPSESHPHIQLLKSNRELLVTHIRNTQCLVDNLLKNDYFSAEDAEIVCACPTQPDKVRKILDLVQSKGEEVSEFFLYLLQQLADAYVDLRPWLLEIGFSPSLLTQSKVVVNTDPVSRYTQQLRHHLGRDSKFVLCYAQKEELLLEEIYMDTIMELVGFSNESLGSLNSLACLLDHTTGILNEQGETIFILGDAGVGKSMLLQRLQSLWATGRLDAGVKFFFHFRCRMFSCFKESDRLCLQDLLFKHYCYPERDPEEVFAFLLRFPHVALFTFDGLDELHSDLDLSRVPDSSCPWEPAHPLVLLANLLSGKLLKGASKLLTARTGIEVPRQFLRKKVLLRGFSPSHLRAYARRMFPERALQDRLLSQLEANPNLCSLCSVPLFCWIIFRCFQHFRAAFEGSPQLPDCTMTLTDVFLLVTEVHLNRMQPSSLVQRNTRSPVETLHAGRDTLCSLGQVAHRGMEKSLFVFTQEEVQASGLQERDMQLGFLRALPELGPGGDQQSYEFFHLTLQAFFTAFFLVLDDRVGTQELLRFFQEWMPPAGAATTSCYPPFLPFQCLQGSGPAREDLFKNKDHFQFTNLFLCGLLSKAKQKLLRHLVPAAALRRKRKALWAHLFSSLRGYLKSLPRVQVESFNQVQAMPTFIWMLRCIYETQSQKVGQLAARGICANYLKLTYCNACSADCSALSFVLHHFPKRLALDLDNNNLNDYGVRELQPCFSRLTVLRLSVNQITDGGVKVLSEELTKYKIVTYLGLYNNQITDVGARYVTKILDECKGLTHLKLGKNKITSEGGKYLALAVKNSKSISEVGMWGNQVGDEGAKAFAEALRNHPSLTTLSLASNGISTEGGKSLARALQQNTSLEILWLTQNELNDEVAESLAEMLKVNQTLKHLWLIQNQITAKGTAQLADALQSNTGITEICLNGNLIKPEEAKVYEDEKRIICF

Tumor necrosis factor [11] = target: T2, Tumor necrosis factor; experiment: TNFa-triggered NF-kB activation inhibitors, SAR follow-up, cell-based, set 2 (AID 2483); assay type: functional
[12] = target: T3, Nucleotide-binding oligomerization domain-containing protein 1; experiment: NOD1 signaling inhibitors, SAR follow-up, revised (AID 2333); assay type: functional
HEK293 [13] = experiment: NOD1 signaling inhibitors, primary screen, cell-based, luminescence, uHTS (AID 1578); assay type: functional; details: Homo sapiens
HEK293 [14] = experiment: cells; assay type: functional, cell-based; details: Homo sapiens; remark: listed apart in the source
[15] = target: Eukaryotic translation initiation factor 4E (Mus musculus, UniProt P63073); experiment: eIF4E–eIF4G protein interaction inhibitors, dose response, biochemical, TR-FRET (AID 855); assay type: functional;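 also: potency for disrupting eIF4E binding to eIF4GI seen as loss of FRET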
Troponin, cardiac muscle = Troponin, cardiac muscle (Homo sapiens, UniProt P19429+P45379+P63316); experiment: Fluorescence-based biochemical high throughput dose response assay for activators of the calcium sensitivity of cardiac Regulated Thin Filaments (RTF). [Related pubchem assays (depositor defined):AID493008, AID493018, AID504382, AID504383]; assay type: protein-complex assay
Mucolipin-3 = target: T4, Mucolipin-3 (Homo sapiens, UniProt Q8TDD5); experiment: Fluorescence counterscreen assay for […] agonists: dose response cell-based high-throughput screening assay to identify agonists of the transient receptor potential channel ML3 (TRPML3). [Related pubchem assays: 1424, 1448 ]; assay type: functional
T4 sequence (Q8TDD5 whole entry): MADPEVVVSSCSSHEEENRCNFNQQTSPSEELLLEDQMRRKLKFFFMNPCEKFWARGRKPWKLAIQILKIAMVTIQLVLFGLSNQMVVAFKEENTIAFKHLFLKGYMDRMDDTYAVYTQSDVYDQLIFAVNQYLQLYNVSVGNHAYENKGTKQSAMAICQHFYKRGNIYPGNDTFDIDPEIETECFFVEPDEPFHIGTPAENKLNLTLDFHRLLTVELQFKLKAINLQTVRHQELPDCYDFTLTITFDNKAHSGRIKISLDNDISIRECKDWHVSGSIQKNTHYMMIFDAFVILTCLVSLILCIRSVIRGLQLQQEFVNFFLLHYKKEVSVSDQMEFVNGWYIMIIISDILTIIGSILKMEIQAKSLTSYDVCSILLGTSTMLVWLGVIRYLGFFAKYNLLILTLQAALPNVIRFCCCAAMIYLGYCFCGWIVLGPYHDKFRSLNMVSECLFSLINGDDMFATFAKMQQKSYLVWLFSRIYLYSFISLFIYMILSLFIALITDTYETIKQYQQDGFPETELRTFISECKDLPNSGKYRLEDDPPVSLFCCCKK

Ion channel NompC = Ion channel NompC (Danio rerio, UniProt Q7T1G6); experiment: Dose response cell-based high-throughput screening assay for agonists of the transient receptor potential channel N1 (TRPN1). [Related pubchem assays (depositor defined):AID1424, AID1448]; assay type: functional
[16] = target: T5, Rac GTPase-activating protein 1 (Homo sapiens, UniProt Q9H0H5); experiment: MgcRacGAP GTPase-activating activity inhibitors, confirmation, biochemical, ADP Hunter fluorescence, primary and confirmatory (AID 624330); assay type: functional
T5 sequence (Q9H0H5 whole entry): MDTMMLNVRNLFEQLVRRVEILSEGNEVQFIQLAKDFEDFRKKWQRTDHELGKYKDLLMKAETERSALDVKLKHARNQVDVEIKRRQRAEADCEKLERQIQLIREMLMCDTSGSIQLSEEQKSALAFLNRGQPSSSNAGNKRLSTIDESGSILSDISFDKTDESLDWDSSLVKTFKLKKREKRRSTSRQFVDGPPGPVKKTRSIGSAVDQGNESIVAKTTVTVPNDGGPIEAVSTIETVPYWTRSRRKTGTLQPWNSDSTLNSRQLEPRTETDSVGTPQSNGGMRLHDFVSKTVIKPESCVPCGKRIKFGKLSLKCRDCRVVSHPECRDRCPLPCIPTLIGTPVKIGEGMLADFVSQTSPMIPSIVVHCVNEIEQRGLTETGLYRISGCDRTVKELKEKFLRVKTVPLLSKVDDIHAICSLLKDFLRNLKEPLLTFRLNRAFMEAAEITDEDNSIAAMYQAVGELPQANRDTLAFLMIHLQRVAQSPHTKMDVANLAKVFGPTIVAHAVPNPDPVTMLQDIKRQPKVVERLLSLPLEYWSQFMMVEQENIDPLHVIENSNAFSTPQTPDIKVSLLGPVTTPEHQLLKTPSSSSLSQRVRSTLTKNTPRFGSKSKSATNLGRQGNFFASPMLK

[17] = HeLa cell cytotoxicity, dose response, cytotoxicity control for MgcRacGAP inhibitor project (AID 624300); assay type: functional
[18] = target: T6, Sphingosine 1-phosphate receptor 4 (Homo sapiens, UniProt O95977); experiment: Late-stage fluorescence dose response cell-based assay to identify agonists of the Sphingosine 1-Phosphate Receptor 4 (S1P4): purchased compounds EC50. [Related pubchem assays (depositor defined):AID1509, AID1523, AID1563, AID1686, AID1701, AID1801]; assay type: functional
T6 sequence (O95977 whole entry): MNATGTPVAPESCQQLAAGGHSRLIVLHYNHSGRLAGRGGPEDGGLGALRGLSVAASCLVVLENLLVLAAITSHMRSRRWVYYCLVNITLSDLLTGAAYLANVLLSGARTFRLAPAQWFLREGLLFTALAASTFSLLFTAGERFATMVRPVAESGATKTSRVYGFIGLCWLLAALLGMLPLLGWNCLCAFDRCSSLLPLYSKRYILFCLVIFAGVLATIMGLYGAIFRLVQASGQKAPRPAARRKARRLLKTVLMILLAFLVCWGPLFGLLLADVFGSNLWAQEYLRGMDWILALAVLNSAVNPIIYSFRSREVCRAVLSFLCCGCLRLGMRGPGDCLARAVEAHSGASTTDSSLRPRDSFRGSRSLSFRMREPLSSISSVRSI

[19] = target: DNA dC->dU-editing enzyme APOBEC-3G (Homo sapiens, UniProt Q9HC16); assay type: functional;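 also: Dose-response counterscreen measuring inhibition of APOBEC3G DNA deaminase activity, run while confirming APOBEC3A inhibitors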
[20] = target: DNA dC->dU-editing enzyme APOBEC-3A (Homo sapiens, UniProt P31941); experiment: Dose Response confirmation of small molecule APOBEC3A DNA Deaminase Inhibitors via a fluorescence-based single-stranded DNA deaminase assay. [Related pubchem assays (depositor defined):AID493011, AID493024]; assay type: functional

Q: What does the source list for `Cc1cc(SCC(=O)OC/C(O)=C(\C#N)c2nc3ccccc3[nH]2)c(C)cc1Br`?
A: EC50 [1]: > 20 µM (inactive); IC50 [2]: 5.19 µM (active); IC50 (HEK293 [3]): > 20 µM (inactive); IC50 (HEK293 [4]): 5.41 µM (inactive); IC50 (HEK293 [5]): 18.9 µM (active); IC50 [6]: > 20 µM (inactive); IC50 (HEK293 [7]): > 20 µM (inactive); IC50 (Tumor necrosis factor [8]): > 20 µM (inactive); IC50 (HEK293 [9]): > 20 µM (inactive); IC50 [10]: 5.95 µM (active); IC50 (Tumor necrosis factor [11]): > 20 µM (inactive); IC50 [12]: > 20 µM (inactive); EC50 (HEK293 [13]): > 20 µM (inactive); IC50 (HEK293 [14]): > 20 µM (inactive)

Q: With `COc1cc(/C=C(\C#N)c2nc3ccccc3[nH]2)cc(OC)c1O` as the molecule, how does the IC50 [15] read?
A: 50 µM (inactive)

Q: And the EC50 (Troponin, cardiac muscle)?
A: 4.89 µM (active)

Q: What about the EC50 (Mucolipin-3) of the same molecule?
A: 8.88 µM (active)

Q: And the EC50 (Ion channel NompC)?
A: 3.62 µM (active)

Q: And the IC50 [16]?
A: 20 µM (active)

Q: And the CC50 [17]?
A: 100 µM (active)

Q: With `Cc1ccc(OCc2ccc(Cl)c(Cl)c2)c([N+](=O)[O-])n1` as the molecule, how does the EC50 [18] read?
A: > 50 µM (inactive)

Q: With `O=C(CNC(=O)OCc1ccccc1)Nc1ccc(F)cc1` as the molecule, how does the IC50 [19] read?
A: 5.01 µM (active)

Q: What about the IC50 [20] of the same molecule?
A: 3.04 µM (active)
